Data set [1] deals with Rabbits fed a 0.25% cholesterol, 3% peanut oil, 3% coconut oil diet. In words: In vivo tests: aortic atherosclerotic lesions in rabbits fed a cholesterol diet. To be noted: 10 mg/kg as diet admix, 12 weeks. As to the method:
The entire descending thoracic aorta was assayed for its cholesteryl ester (CE), free cholesterol phospholipid content. The lipids were extracted in chloroform:methanol (2:1) by the procedure of Folch, et al. (Folch J., Lees M., Sloane-Stanley G. H. A simple method for the isolation and purification of total lipids from animal tissue, J. Biol. Chem., 1957;226:497-509) and 300-500 μL of an internal standard, i.e., 200 mg/ml solution of 4-hydroxy-cholesterol in ethyl acetate:acetone (2:1), was added to the extracts of the thoracic aortic samples. After extraction, the organic phase was dried under nitrogen and redissolved in isooctane/tetrahydro-furan (97:3). The lipid content and composition of the thoracic aorta were measured using an HPLC method.
For histologic evaluation of the aortic arch lesions and for quantification of aortic arch cross-sectional lesion area, a 1 cm segment of the ascending aorta distal to the aortic valves was fixed in 10% neutral buffered formalin for 24 hours. The vessels were dehydrated, cleared in xylene, and infiltrated with molten paraffin (<60° C.) using a Tissue Tek VIP autoprocessor (Miles Scientific, Elkhart, Ind.). The tissue segments were embedded in paraffin and sectioned at 5 μm with a Reichert-Jung microtome (Baxter, McGraw Park, Ill.). In order to obtain a thorough representation of the histologic appearance of the aortic arch lesions, 3 ribbons of 20 sections each were cut. Each ribbon of sections was spaced approximately 100 μm apart. Three pairs of sections, i.e., 1 pair from each ribbon, were affixed to cleaned 3-aminopropyltriethoxy-silane coated glass slides and stored until stained. The general histologic character was evaluated in Verhoeff's elastica stained sections.
The gross extent of atherosclerosis within the aortic arch was measured. In addition, sections of the aortic arch, a site of hypercholesterolemia-induced lesions, stained using the Verhoeff's elastica procedure were used for quantification of lesion cross-sectional. The internal elastic lamina (IEL) was identified as a blue-black ring and images of that region were collected using a digital camera. The area within the IEL was quantified using the Image Pro Plus image analysis software. The area of the lumen of the aortic arch was also quantified in a similar fashion. Lesion area was defined as the difference between the area circumscribed by the internal elastic lamina and the lumen area.
Aortic arch lesion extent was also measured. The area distal to the 1 cm segment taken for histologic evaluation to the first intercostal ostia was removed from the animal, opened longitudinally and images of the surface of the vessel was collected using a digital camera. The lesions were identified as raised, opaque areas and their area was determined using the Image Pro Plus image analysis software. The area of the entire aortic arch was also determined. The percentage of aortic arch covered by atherosclerotic lesions was calculated.

In data set [2] the target is T1, rabbit reticulocyte 15-LO (Oryctolagus cuniculus, UniProt P12530).
T1 construct: Fifteen-lipoxygenase was obtained from phenylhydrazine-treated rabbits and purified per the method of Rapoport; from tissue; host or cells: reticulocytes of phenylhydrazine-treated rabbits
T1 sequence (P12530 1-663): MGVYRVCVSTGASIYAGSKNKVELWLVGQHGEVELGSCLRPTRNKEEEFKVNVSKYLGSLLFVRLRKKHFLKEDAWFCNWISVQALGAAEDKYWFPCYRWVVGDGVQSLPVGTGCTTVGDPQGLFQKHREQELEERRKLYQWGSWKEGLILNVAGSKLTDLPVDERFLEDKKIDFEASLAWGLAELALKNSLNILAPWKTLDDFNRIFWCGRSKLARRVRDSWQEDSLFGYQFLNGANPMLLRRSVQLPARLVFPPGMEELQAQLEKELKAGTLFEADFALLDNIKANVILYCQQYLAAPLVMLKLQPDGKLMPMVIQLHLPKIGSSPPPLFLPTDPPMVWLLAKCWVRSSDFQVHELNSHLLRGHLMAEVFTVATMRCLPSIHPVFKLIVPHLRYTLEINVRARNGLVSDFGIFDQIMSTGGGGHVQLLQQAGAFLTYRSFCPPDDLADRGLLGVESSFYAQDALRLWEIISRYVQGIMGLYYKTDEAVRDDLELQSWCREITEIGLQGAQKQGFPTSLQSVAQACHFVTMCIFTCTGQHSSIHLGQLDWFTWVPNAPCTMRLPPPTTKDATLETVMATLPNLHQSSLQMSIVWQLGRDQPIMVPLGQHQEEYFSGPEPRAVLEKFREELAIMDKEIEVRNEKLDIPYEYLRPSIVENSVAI
In words: Rabbit Reticulocyte 15-LO Assay (h15LO). It counts as biochemical. Conditions: for IC50: 2U rabbit reticulocyte 15-LO, 174 μM linoleic acid, 15 minutes at 4° C.; for h15LO, value given as bare %: concentration not given. The method in brief: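 Purified rabbit reticulocyte 15-LO (2U) incubated with inhibitor and 174 μM linoleic acid in PBS with 0.2% Na cholate for 15 minutes at 4° C. 13-HPODE quantified by peak area against 13-HODE standard curve; % inhibition relative to uninhibited reaction.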

As a reminder, the melting point is the temperature, or range, at which the solid turns liquid. A word on the IC50: it is the concentration at which inhibition is half-maximal. The molecule `COc1ccc(C(=O)Nc2ccc(Cl)c(Cl)c2)cc1N` [Example 4, 3-Amino-4-methoxy-N-(3,4-dichlorophenyl)-benzamide] gave a melting point of 179 to 182 °C. Besides, in data set [1], the “Aortic Arch Cross-Sectional Lesion Area (% Δ from Control)” value is recorded as −94 % Δ from Control, the “Aortic Arch Lesion Extent (% Δ from Control)” value is listed as “+20 % Δ from Control” and the “Aortic Cholesteryl Ester Content (% Δ from Control)” value is −7 % Δ from Control. In addition, in data set [2] (Table 1), the half-maximal inhibitory concentration (IC50) was 10 nM.

On to `COc1ccc(C(=O)Nc2ccc(F)cc2)cc1Nc1cccc(C(F)(F)F)c1` [Example 40, 3-(3-Trifluoromethyl-phenylamino)-4-methoxy-N-(4-fluorophenyl)-benzamide], for which the melting point was 163 to 164 °C. Further, in data set [1], the “Aortic Arch Cross-Sectional Lesion Area (% Δ from Control)” value is on record as −6 % Δ from Control, the “Aortic Arch Lesion Extent (% Δ from Control)” value is recorded as “+35 % Δ from Control” and the “Aortic Cholesteryl Ester Content (% Δ from Control)” value was “+5 % Δ from Control”. Further, the IC50 in data set [2] (Table 2) stood at 17 nM.

In turn, `COc1ccc(C(=O)Nc2ccccc2)cc1NC(=S)Nc1ccc(C(=O)O)cc1` [Example 75, 4-[3-(2-Methoxy-5-phenylcarbamoyl-phenyl)-thioureido]-benzoic acid] yielded a melting point of 201 to 202 °C. Also, in data set [1], the “Aortic Arch Cross-Sectional Lesion Area (% Δ from Control)” value is −90 % Δ from Control, the “Aortic Arch Lesion Extent (% Δ from Control)” value was −49 % Δ from Control and the “Aortic Cholesteryl Ester Content (% Δ from Control)” value is given as −28 % Δ from Control. In addition, the half-inhibitory concentration (IC50) in data set [2] (Table 2) is 104 nM.

Regarding `COc1ccc(C(=O)Nc2ccc(F)cc2)cc1NC(=S)Nc1cc(Cl)cc(Cl)c1` [Example 91, 3-[3-(3,5-Dichlorophenyl)-thioureido]-N-(4-fluorophenyl)-4-methoxy-benzamide], the melting point lay within 175 to 178 °C. Moreover, in data set [1], the “Aortic Arch Cross-Sectional Lesion Area (% Δ from Control)” value is given as −11 % Δ from Control, the “Aortic Arch Lesion Extent (% Δ from Control)” value is −12 % Δ from Control and the “Aortic Cholesteryl Ester Content (% Δ from Control)” value is “+50 % Δ from Control”. The molecule also returned a concentration for half-maximal inhibition (IC50) in data set [2] (Table 2) of 8 nM.

In turn, `COc1ccc(C(=O)Nc2ccccc2)cc1NS(=O)(=O)c1ccc(NC(C)=O)cc1` [Example 139, 3-(4-Acetylamino-benzenesulfonylamino)-4-methoxy-N-phenyl-benzamide] showed a melting point of 250 to 251 °C. The molecule further had an IC50 in data set [2] (Table 2) of 104 nM.

In the case of `COc1ccc(C(=O)Nc2ccccc2)cc1NS(=O)(=O)c1cn(C)cn1` [Example 141, 3-(1-Methyl-1H-imidazole-4-sulfonylamino)-4-methoxy-N-phenyl-benzamide], the melting point lay in the range of 250 to 252 °C. Half-maximal inhibition in data set [2] (Table 2) (IC50) was put at 582 nM.

Take `COc1ccc(C(=O)Nc2ccccc2)cc1NS(=O)(=O)c1cccs1` [Example 142, 3-(Thiophene-2-sulfonylamino)-4-methoxy-N-phenyl-benzamide]: the melting point fell in the range of 180 to 183 °C. Moreover, inhibition in data set [2] (Table 2) was half-maximal at 12 nM (IC50).

`COc1ccc(C(=O)Nc2ccccc2)cc1NS(=O)(=O)c1cccc2c(N(C)C)cccc12` [Example 143, 3-(5-Dimethylaminonaphthalene-1-sulfonylamino)-4-methoxy-N-phenyl-benzamide] gave a melting point of 231 to 232 °C. The IC50 in data set [2] (Table 2) came to 25 nM.

The molecule `COc1ccc(C(=O)Nc2ccccc2)cc1OC(=O)Oc1ccccc1` [Example 144, 2-Methoxy-5-phenylcarbamoyl-carbonic acid-phenyl ester phenyl ester] gave a melting point of 152 to 153 °C. In data set [2] (Table 2), this molecule registered an IC50 of 1190 nM.

`Nc1cc(C(=O)Nc2ccc(F)cc2)ccc1OC(F)(F)F` [Example 146, 3-Amino-4-trifluoromethoxy-N-(4-fluoro-phenyl)-benzamide] came in with a melting point of 139 to 140 °C. Moreover, in data set [2] (Table 2), the “h15LO, value given as bare %” value is 35.29%.

With `COC(=O)c1cccc(NC(=O)c2ccc(OC)c(N)c2)c1` [Example 149, 3-(3-Amino-4-methoxy-benzoylamino)-benzoic Acid Methyl Ester], the melting point lay within 160 to 162 °C. Moreover, in data set [2] (Table 2), the IC50 is 330 nM.

With `O=C(Nc1ccc(F)cc1)c1ccc(OC(F)(F)F)c(NC(=S)Nc2cc(Cl)cc(Cl)c2)c1` [Example 163, 3-[3-(3,5-Dichloro-phenyl)-thioureido]-4-trifluoromethoxy-N-(4-fluoro-phenyl)-benzamide], the melting point was 165 to 166 °C. This molecule also displayed an IC50 in data set [2] (Table 2) of 629 nM.

The molecule `O=C(Nc1ccc(F)cc1)c1ccc(OC(F)(F)F)c(NC(=S)Nc2cccc(C(F)(F)F)c2)c1` [Example 164] had a melting point of 153 to 154 °C. The same molecule returned a half-maximal inhibitory concentration (IC50) in data set [2] (Table 2) of 1590 nM.

Turning to `CCCCCCCCCCCCS(=O)(=O)Nc1cc(C(=O)Nc2ccc(Cl)c(Cl)c2)ccc1OC` [Example 194, 3-(Dodecane-1-sulfonylamino)-4-methoxy-N-(3,4-dichloro-phenyl)-benzamide], the melting point lay within 151 to 152 °C. In data set [2] (Table 2), the “h15LO, value given as bare %” value came out at 93.61%.

Molecule `COc1ccc(C(=S)Nc2ccccc2)cc1NS(=O)(=O)c1cc(Cl)cc(Cl)c1` [Example 208, 3-(3,5-Dichloro-benzenesulfonylamino)-4-methoxy-N-phenyl-thiobenzamide] returned a melting point of 206 to 208 °C. In addition, the “h15LO, value given as bare %” value in data set [2] (Table 2) worked out at 98.52%.

The molecule `COc1ccc(CNc2ccccc2)cc1NS(=O)(=O)c1cc(Cl)cc(Cl)c1` [Example 209, 3,5-Dichloro-N-(2-methoxy-5-phenylaminomethyl-phenyl)-benzenesulfonamide] came in with a melting point of 105 to 108 °C. The “h15LO, value given as bare %” value in data set [2] (Table 2) is 80.94%.

For the molecule `COc1ccc(C(=O)Nc2ccccc2)cc1NC(=O)CC(=O)OCc1ccccc1` [Example 252, (2-Methoxy-5-phenylcarbamoyl-phenylcarbamoyl)-acetic acid phenylmethyl Ester], the melting point was in the range of 168 to 171 °C. In addition, the “h15LO, value given as bare %” value in data set [2] (Table 2) was determined as 43%.

On to `COc1ccc(C(=O)Nc2ccccc2)cc1NCCc1cccc(C(F)(F)F)c1` [Example 253, 4-Methoxy-N-phenyl-3-[2-(3-trifluoromethyl-phenyl)-ethylamino]-benzamide], for which the melting point was 142 to 144 °C. For the same molecule, in data set [2] (Table 2), the “h15LO, value given as bare %” value is 60.56%.

Molecule `COc1ccc(C(=O)Nc2ccccc2)cc1NC(=NC#N)Nc1cc(Cl)cc(Cl)c1` [Example 256, 3-[[(Cyanoimino)[(3,5-dichlorophenyl)amino]methyl]amino]-4-methoxy-N-phenyl-benzamide] registered a melting point of 225 to 227 °C. Also, the “h15LO, value given as bare %” value in data set [2] (Table 2) worked out at 45%.

On to `COc1ccc(C(=O)Nc2ccccc2)cc1NC(=O)C(O)c1ccccc1` (stereo not shown) [Example 257, 3-(2-Hydroxy-2-phenyl-acetylamino)-4-methoxy-N-phenyl-benzamide], for which the melting point lay in the range of 173 to 175 °C. In addition, the “h15LO, value given as bare %” value in data set [2] (Table 2) stood at 61%.
